Source: patent US20250034150A1, “BTK INHIBITORS” (BIOGEN MA INC., priority 2021, published 2025)
Where a name gives a salt, the structure may show the parent alone.

Assays:
[1] = test system: CD69 expression on CD19+ B cells in human whole blood; assay: In Vitro whole blood CD69 Assay; assay type: cell-based; conditions: B-cell; human heparinized whole blood, anti-human IgD stimulation overnight, CD19+ B cells, flow cytometry; read-out: In Vitro HWB CD69 Assay IC50 Score
Description: Human heparinized venous blood from health donors was aliquoted into 96-well plate and “spiked” with serial dilutions of formula I compounds in DMSO or with DMSO without drug. The final concentration of DMSO in all wells was 0.1%. The plate was incubated at 37° C. for 30 min. Drug-containing samples were stimulated with 0.1 μg/mL mouse anti-human IgD-dextran (1A62) or 20 μg/mL polyclonal rabbit F(ab′)2 anti-human IgD. Phosphate-buffered saline (PBS) was added to the negative control unstimulated sample and the plates were incubated overnight (18 to 22 hours) at 37° C. Cells were stained with fluorochrome-conjugated anti-CD19 and anti-CD69 antibodies. Lyse/fix solution was used to remove red blood cells by hypotonic lysis and to fix the remaining cells, which were then analyzed by flow cytometry. CD19+ B cells were gated and analyzed for CD69 expression.

BTK = target: T1, BTK (Homo sapiens, UniProt Q06187); assay: In Vitro BTK Kinase Assay: Btk-PolyGAT-LS Assay; assay type: biochemical; conditions: active BTK enzyme 0.25 nM, polyGAT 100 nM, 30 minutes, TRF readout; read-out: In Vitro BTK Kinase Assay IC50 Score
T1 construct: purchased Upstate 14-552
T1 sequence (Q06187 whole entry): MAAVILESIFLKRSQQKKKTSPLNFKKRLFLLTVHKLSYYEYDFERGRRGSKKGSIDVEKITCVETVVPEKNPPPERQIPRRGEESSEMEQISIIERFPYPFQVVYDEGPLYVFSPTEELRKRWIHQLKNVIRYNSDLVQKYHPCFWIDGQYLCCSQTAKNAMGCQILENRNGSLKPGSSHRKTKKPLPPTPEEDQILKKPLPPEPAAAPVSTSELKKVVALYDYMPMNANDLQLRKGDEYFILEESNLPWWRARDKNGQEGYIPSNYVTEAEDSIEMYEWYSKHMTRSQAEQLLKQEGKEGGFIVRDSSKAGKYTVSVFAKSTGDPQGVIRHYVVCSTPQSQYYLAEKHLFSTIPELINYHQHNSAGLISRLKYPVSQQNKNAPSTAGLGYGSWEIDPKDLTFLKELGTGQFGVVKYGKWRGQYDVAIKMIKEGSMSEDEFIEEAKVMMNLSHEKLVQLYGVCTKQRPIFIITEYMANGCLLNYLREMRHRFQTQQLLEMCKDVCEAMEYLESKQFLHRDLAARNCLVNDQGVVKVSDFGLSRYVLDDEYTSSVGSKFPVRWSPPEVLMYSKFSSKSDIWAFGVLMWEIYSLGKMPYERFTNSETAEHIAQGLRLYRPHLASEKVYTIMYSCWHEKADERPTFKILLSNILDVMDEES
Description: The purpose of the BTK in vitro assay is to determine compound potency against BTK through the measurement of IC50. Compound inhibition is measured after monitoring the amount of phosphorylation of a fluorescein-labeled polyGAT peptide (Invitrogen PV3611) in the presence of active BTK enzyme (Upstate 14-552), ATP, and inhibitor. The BTK kinase reaction was done in a black 96 well plate (costar 3694). For a typical assay, a 24 μL aliquot of a ATP/peptide master mix (final concentration; ATP […], polyGAT 100 nM) in kinase buffer (10 mM Tris-HCl pH 7.5, 10 mM MgCl2, 200 μM […], 5 mM DTT, 0.01% Triton X-100, and 0.2 mg/ml casein) is added to each well. Next, […] of a 4-fold, 40× compound titration in 100% DMSO solvent is added, followed by adding 15 μL of BTK enzyme mix in 1× kinase buffer (with a final concentration of 0.25 nM). The assay is incubated for 30 minutes before being stopped with 28 μL of a 50 mM EDTA solution. Aliquots (5 uL) of the kinase reaction are transferred to a low volume white 384 well plate (Coming 3674), and 5 μL of a 2× detection buffer (Invitrogen PV3574, with 4 nM Tb—PY20 antibody, Invitrogen PV3552) is added. The plate is covered and incubated for 45 minutes at room temperature. Time resolved fluorescence (TRF) on Molecular Devices M5 (332 nm excitation; 488 nm emission; 518 nm fluorescein emission) is measured. IC50 values are calculated using a four parameter fit with 100% enzyme activity determined from the DMSO control and 0% activity from the EDTA control.

Row | Structure (SMILES) | IC50 [1] [nM] | IC50 (BTK) [nM]
1 | Cn1cc(-c2cn3nccc3c(N3CCC(C)(CNC(=O)c4cnc(C(C)(C)C)o4)C3)n2)cn1 (centres unmarked) [Example 50, 2-(tert-butyl)-N-((3-methyl-1-(6-(1-methyl-1H-pyrazol-4-yl)pyrazolo[1,5-a]pyrazin-4-yl)pyrrolidin-3-yl)methyl)oxazole-5-carboxamide] | – | 1000 to 10000
2 | Cn1cc(-c2cn3nccc3c(N3C[C@H]4CC[C@@H](C3)[C@H]4CNC(=O)c3noc(C(C)(C)C)n3)n2)cn1 [Example 164, 5-(tert-butyl)-N-(((1R,5S,8s)-3-(6-(1-methyl-1H-pyrazol-4-yl)pyrazolo[1,5-a]pyrazin-4-yl)-3-azabicyclo[3.2.1]octan-8-yl)methyl)-1,2,4-oxadiazole-3-carboxamide] | – | 10 to 1000
3 | C[C@H]1C[C@H](CNC(=O)c2cn(C(C)(C)C)nn2)CCN1c1nc(-c2cnn(C)c2)cn2nccc12 (single isomer, unassigned) [Example 140] | – | 10 to 1000
4 | Cc1cc(-c2nc(-c3cnn(C)c3)cn3nccc23)ccc1CN1CCN(C2COC2)C(C)C1=O (centres unmarked) [Example 37, 3-methyl-1-(2-methyl-4-(6-(1-methyl-1H-pyrazol-4-yl)pyrazolo[1,5-a]pyrazin-4-yl)benzyl)-4-(oxetan-3-yl)piperazin-2-one] | – | 10 to 1000
5 | CCCN1CCN(CC2CCN(c3nc(-c4cnn(C)c4)cn4nccc34)CC2)C(=O)C1 [Example 170, 1-((1-(6-(1-methyl-1H-pyrazol-4-yl)pyrazolo[1,5-a]pyrazin-4-yl)piperidin-4-yl)methyl)-4-propylpiperazin-2-one hydrochloride] | – | 1000 to 10000
6 | C[C@@H]1CN(c2nc(-c3cnn(C)c3)cn3nccc23)CC[C@@H]1CNC(=O)c1cn(C(C)(C)C)nn1 (single isomer, unassigned) [Example 150] | – | 10 to 1000
7 | CC(C)(C)n1ccc(C(=O)NCc2ccc(-c3nc(N4CCOCC4)cn4nccc34)cc2)n1 [Example 28, 1-(tert-butyl)-N-(4-(6-morpholinopyrazolo[1,5-a]pyrazin-4-yl)benzyl)-1H-pyrazole-3-carboxamide] | – | 1000 to 10000
8 | CC(C)(C)n1cc(C(=O)NCc2ccc(-c3nc(N4CCOCC4)cn4nccc34)cc2)cn1 [Example 27, 1-(tert-butyl)-N-(4-(6-morpholinopyrazolo[1,5-a]pyrazin-4-yl)benzyl)-1H-pyrazole-4-carboxamide] | – | 1000 to 10000
9 | CC(C)(C)c1nnc(C(=O)NCc2ccc(-c3nc(N4CCOCC4)cn4nccc34)cc2)o1 [Example 29, 5-(tert-butyl)-N-(4-(6-morpholinopyrazolo[1,5-a]pyrazin-4-yl)benzyl)-1,3,4-oxadiazole-2-carboxamide] | – | 1000 to 10000
10 | CC(C)N1CCN(CC2CCN(c3nc(-c4cnn(C)c4)cn4nccc34)CC2)C(=O)C1 [Example 173, 4-isopropyl-1-((1-(6-(1-methyl-1H-pyrazol-4-yl)pyrazolo[1,5-a]pyrazin-4-yl)piperidin-4-yl)methyl)piperazin-2-one] | – | 1000 to 10000

More lines, now with the values ahead:

Row | IC50 [1] [nM] | IC50 (BTK) [nM] | Structure (SMILES)
11 | < 1000 | < 1 | Cn1cc(-c2cn3nccc3c(-c3ccc(CNC(=O)c4cn(C(C)(C)C)nn4)c(F)c3F)n2)cn1 [Example 93, 1-(tert-butyl)-N-(2,3-difluoro-4-(6-(1-methyl-1H-pyrazol-4-yl)pyrazolo[1,5-a]pyrazin-4-yl)benzyl)-1H-1,2,3-triazole-4-carboxamide]
12 | 1000 to 10000 | 1 to 10 | Cc1cc(-c2nc(-c3cnn(C)c3)cn3nccc23)ccc1CN1CCN(CC(C)C)C(C)C1=O (centres unmarked) [Example 36, 4-isobutyl-3-methyl-1-(2-methyl-4-(6-(1-methyl-1H-pyrazol-4-yl)pyrazolo[1,5-a]pyrazin-4-yl)benzyl)piperazin-2-one]
13 | 1000 to 10000 | 1 to 10 | Cn1cc(-c2cn3nccc3c(N3CCC(C)(CNC(=O)c4noc(C(C)(C)C)n4)CC3)n2)cn1 [Example 41, 5-(tert-butyl)-N-((4-methyl-1-(6-(1-methyl-1H-pyrazol-4-yl)pyrazolo[1,5-a]pyrazin-4-yl)piperidin-4-yl)methyl)-1,2,4-oxadiazole-3-carboxamide]
14 | 1000 to 10000 | 10 to 1000 | Cn1cc(-c2cn3nccc3c(N3CCC(C)(CNC(=O)c4nnn(C(C)(C)C)n4)CC3)n2)cn1 [Example 43, 2-(tert-butyl)-N-((4-methyl-1-(6-(1-methyl-1H-pyrazol-4-yl)pyrazolo[1,5-a]pyrazin-4-yl)piperidin-4-yl)methyl)-2H-tetrazole-5-carboxamide]
15 | 1000 to 10000 | 1 to 10 | Cn1cc(-c2cn3ncnc3c(N3CCC(CNC(=O)c4noc(C(C)(C)C)n4)CC3)n2)cn1 [Example 73, 5-(tert-butyl)-N-((1-(6-(1-methyl-1H-pyrazol-4-yl)-[1,2,4]triazolo[1,5-a]pyrazin-8-yl)piperidin-4-yl)methyl)-1,2,4-oxadiazole-3-carboxamide]
16 | < 1000 | < 1 | Cn1cc(-c2cc(-c3ccc(CNC(=O)c4cn(C(C)(C)C)nn4)c(F)c3)c3ccnn3c2)cn1 [Example 69, 1-(tert-butyl)-N-(2-fluoro-4-(6-(1-methyl-1H-pyrazol-4-yl)pyrazolo[1,5-a]pyridin-4-yl)benzyl)-1H-1,2,3-triazole-4-carboxamide]
17 | < 1000 | < 1 | Cn1cc(-c2cn3nccc3c(-c3ccc(CNC(=O)c4noc(C5(C)CC5)n4)cc3)n2)cn1 [Example 5, N-(4-(6-(1-methyl-1H-pyrazol-4-yl)pyrazolo[1,5-a]pyrazin-4-yl)benzyl)-5-(1-methylcyclopropyl)-1,2,4-oxadiazole-3-carboxamide]
18 | – | 10 to 1000 | Cn1cc(-c2cn3nccc3c(-c3ccc(CNC(=O)c4ccn(C(C)(C)C)n4)cc3F)n2)cn1 [Example 111, 1-(tert-butyl)-N-(3-fluoro-4-(6-(1-methyl-1H-pyrazol-4-yl)pyrazolo[1,5-a]pyrazin-4-yl)benzyl)-1H-pyrazole-3-carboxamide]
19 | – | 10 to 1000 | CC(NC(=O)c1cn(C(C)(C)C)nn1)C1CCN(c2nc(-c3cnn(C)c3)cn3nccc23)CC1 (centres unmarked) [Example 163, 1-(tert-butyl)-N-(1-(1-(6-(1-methyl-1H-pyrazol-4-yl)pyrazolo[1,5-a]pyrazin-4-yl)piperidin-4-yl)ethyl)-1H-1,2,3-triazole-4-carboxamide]
20 | – | 10 to 1000 | Cn1cc(-c2cn3nccc3c(N3CCC(F)(CNC(=O)c4cn(C(C)(C)C)nn4)CC3)n2)cn1 [Example 162, 1-(tert-butyl)-N-((4-fluoro-1-(6-(1-methyl-1H-pyrazol-4-yl)pyrazolo[1,5-a]pyrazin-4-yl)piperidin-4-yl)methyl)-1H-1,2,3-triazole-4-carboxamide trifluoroacetate]
21 | – | 10 to 1000 | Cc1cc(-c2nc(N3CCN(C)CC3)cn3nccc23)ccc1CNC(=O)c1cnn(C(C)(C)C)n1 [Example 124, 2-(tert-butyl)-N-(2-methyl-4-(6-(4-methylpiperazin-1-yl)pyrazolo[1,5-a]pyrazin-4-yl)benzyl)-2H-1,2,3-triazole-4-carboxamide trifluoroacetate]
22 | – | 10 to 1000 | Cc1cc(-c2nc(N3CCOCC3)cn3nccc23)ccc1CNC(=O)c1cnn(C(C)(C)C)n1 [Example 123, 2-(tert-butyl)-N-(2-methyl-4-(6-morpholinopyrazolo[1,5-a]pyrazin-4-yl)benzyl)-2H-1,2,3-triazole-4-carboxamide]
23 | – | 10 to 1000 | CC(C)CN1CCN(CC2CCN(c3nc(-c4cnn(C)c4)cn4nccc34)CC2)C(=O)C1 [Example 168, 4-isobutyl-1-((1-(6-(1-methyl-1H-pyrazol-4-yl)pyrazolo[1,5-a]pyrazin-4-yl)piperidin-4-yl)methyl)piperazin-2-one]
24 | – | 10 to 1000 | Cn1cc(-c2cn3nccc3c(N3CCCC(CNC(=O)c4cn(C(C)(C)C)nn4)CC3)n2)cn1 (centres unmarked) [Example 167, 1-(tert-butyl)-N-((1-(6-(1-methyl-1H-pyrazol-4-yl)pyrazolo[1,5-a]pyrazin-4-yl)azepan-4-yl)methyl)-1H-1,2,3-triazole-4-carboxamide]
25 | – | 10 to 1000 | Cn1cc(-c2cn3nccc3c(N3CC4CCC(C3)C4CNC(=O)c3noc(C(C)(C)C)n3)n2)cn1 [Example 165, 5-(tert-butyl)-N-(((1R,5S,8r)-3-(6-(1-methyl-1H-pyrazol-4-yl)pyrazolo[1,5-a]pyrazin-4-yl)-3-azabicyclo[3.2.1]octan-8-yl)methyl)-1,2,4-oxadiazole-3-carboxamide]
